Assay [1] addresses T1, DHPS (Homo sapiens, UniProt P49366).
T1 construct: host or cells: E. coli BL21 (DE3)
T1 sequence (P49366 1-369): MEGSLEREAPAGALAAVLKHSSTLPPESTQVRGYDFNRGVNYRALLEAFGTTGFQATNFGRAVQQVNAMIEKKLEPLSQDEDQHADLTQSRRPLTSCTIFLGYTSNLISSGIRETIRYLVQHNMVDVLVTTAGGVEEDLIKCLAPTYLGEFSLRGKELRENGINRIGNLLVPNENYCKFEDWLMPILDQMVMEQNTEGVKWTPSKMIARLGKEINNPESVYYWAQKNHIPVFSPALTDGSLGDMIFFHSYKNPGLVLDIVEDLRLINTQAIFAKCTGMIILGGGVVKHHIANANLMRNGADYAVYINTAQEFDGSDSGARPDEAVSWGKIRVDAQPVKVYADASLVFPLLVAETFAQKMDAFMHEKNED
The assay can be described thus: Hyp'Assay: cell-free eIF5A hypusination in 96-well plates (recombinant eIF5A, DHPS, DOHH; anti-hypusine antibody Hpu24), substance present in the DHPS step. The class given is biochemical. As to conditions: for concentration from which inhibition of hypusination was detectable / hypusination signal, Mean (quantification from Figure 5A): 5 μM spermidine; for hypusination signal, Mean (quantification from Figure 5A): control 98,5. On the procedure: The principle of the Hyp’Assay (Fig 2A) is to perform eIF5A hypusination reaction in 96-well plates, allow eIF5A to adsorb to the plate, incubate with an anti-hypusine antibody and a secondary antibody conjugated to HRP and reveal hypusination using TMB as a substrate.
(§1) […] Then 10 μL containing 1 μg of DOHH with 10 μM Fe^2+ (H8FeN2O8S2^. 6H2O) were added. After 1 h proteins were analyzed by Western Blot using antibodies toward DHPS, DOHH, Hypusine, and eIF5A.
(§2) The cell-free reaction described in 4.4 is performed in triplicates in a 96-wells plate (MaxiSorp, ThermoFisher) in the presence of 3 μg of eIF5A, 2 μg of DHPS, and 2 μg of DOHH by well. The reaction product, hypusinated eIF5A, is adsorbed onto the plate overnight at 4°C. The plate is washed (100 μL/well) thrice with PBS-T (PBS– 0.05% Tween20), then saturated with 1% non-fat dry milk in PBS-T for 2 h at room temperature. The plate is washed thrice with PBS-T and incubated overnight at 4°C with the anti-hypusine antibody (1:2000 in saturation buffer, 50 μL/well). The next day and after 5 washes with PBS-T, HRP-coupled anti-rabbit secondary antibody diluted 1:5000 in saturation buffer (50 μL/well) is added for 2 h at room temperature.

The subject of assay [2] is eIF5A hypusination in MCF7 cells. The assay can be described thus: eIF5A hypusination in intact MCF7 cells, Western blot. The class given is cell-based, human. As to conditions: 40 μM, 24 h, Ctrl 100, 4 experiments. On the procedure:
We tested the ability of the GC7 analogs to inhibit hypusination in intact cells. MCF-7 cells (Fig 5B), a classical model of breast cancer cell line, and HT29 cells (Fig 5C), a cell model of colorectal cancer, were treated with 40 μM of GC7, 1, 2, 3, and 4 for 24h. Cells were lysed and analyzed by Western blot. As observed, none of the molecules modified eIF5A expression. […] GC7 analogs inhibited hypusination from 35 to 55%.
The human breast cancer cell line MCF7 (HTB-22 ATCC) and colorectal adenocarcinoma HT29 (HTB-38 ATCC) were cultured in DMEM (Gibco) supplemented with 10% FBS (Dutscher), 10 U/mL penicillin, and […] streptomycin. 1 mM of aminoguanidine was added to the medium to inhibit the degradation of GC7 and polyamines by amine oxidase from the serum and the production of reactive oxygen species. Cells were maintained at 37°C, 5% CO2 in a humid atmosphere.
After treatment, cells were washed with ice-cold PBS and lysed in RIPA Buffer (50 mM Tris pH 7.5, 150 mM NaCl, 0.1% SDS, 0.5% Na Deoxycholate, 5 mM NaF, 2.5 mM Na4P2O7, 1% NP4O) containing a protease inhibitor cocktail (complete Roche). 10 μg of proteins were separated by SDS PAGE and transferred to a PVDF membrane (Immobilon-P Millipore). The membranes were probed with the appropriate primary antibody that was detected by horseradish peroxidase-conjugated secondary antibody (Jackson Immunoresearch) and visualized by chemiluminescence (ECL Amersham RPN 3244) using a Fuji LAS-4000 imager. ImageJ® software was used to quantify band intensity and the ratios of proteins of interest were normalized to a loading control. Full-length Western blots are provided in the supplementary data (S19, S20 Figs).

Assay [3] has as its target T2, DOHH (Homo sapiens, UniProt Q9BU89).
T2 construct: pelB leader (N); host or cells: E. coli BL21 (DE3)
T2 sequence (Q9BU89 1-302): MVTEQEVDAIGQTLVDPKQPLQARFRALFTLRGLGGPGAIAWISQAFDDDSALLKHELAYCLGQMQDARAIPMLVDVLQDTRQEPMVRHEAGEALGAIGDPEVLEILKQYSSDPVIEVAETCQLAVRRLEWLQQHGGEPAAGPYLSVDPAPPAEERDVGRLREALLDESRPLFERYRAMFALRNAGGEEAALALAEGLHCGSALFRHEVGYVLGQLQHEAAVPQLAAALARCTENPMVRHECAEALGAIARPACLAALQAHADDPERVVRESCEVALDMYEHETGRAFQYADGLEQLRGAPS
The assay can be described thus: Hyp'Assay, substance added after the deoxyhypusination reaction (DOHH step). As to conditions: control 100,0. The class given is biochemical. The protocol:
We then tested the ability of DOHH inhibitors to inhibit eIF5A hypusination using the Hyp’Assay. During the Hyp’Assay, DOHH inhibitors were added after the deoxyhypusination reaction.
To address this issue, we compared the ability of GC7 to inhibit DHPS or DOHH by adding GC7 during the first step of the Hyp’Assay; when DHPS mediates the deoxyhypusination reaction (Fig 2A), or only during the second step, when DOHH hydroxylate deoxyhypusinated eIF5A. […] When finding new hypusination inhibitors adding them during the first or the second step of the Hyp’Assay will allow us to determine if the inhibition affects DHPS or DOHH. Another way to discriminate between DHPS or DOHH inhibitors would be to use Hpu98, an antibody that recognized both hypusinated and deoxyhypusinated eIF5A, instead of Hpu24, which is specific for hypusinated eIF5A [18]. […] We performed a new Hyp’Assay by omitting DOHH in the reaction mix and using the Hpu98 antibody. First, we performed a dose response experiment with spermidine at pH: 8.0 and 9.0 (Fig 3E). […] We also tested the ability of GC7 (Fig 3F) and CPX or EDTA (Fig 3G) to inhibit DHPS.
as §1, §2

Assay [4] concerns the target T1, DHPS. The assay can be described thus: Hyp'Assay without DOHH: deoxyhypusination of eIF5A revealed with Hpu98 antibody. The format is biochemical.
Source text: To address this issue, we compared the ability of GC7 to inhibit DHPS or DOHH by adding GC7 during the first step of the Hyp’Assay; when DHPS mediates the deoxyhypusination reaction (Fig 2A), or only during the second step, when DOHH hydroxylate deoxyhypusinated eIF5A. […] This confirms the specificity of GC7 towards DHPS. When finding new hypusination inhibitors adding them during the first or the second step of the Hyp’Assay will allow us to determine if the inhibition affects DHPS or DOHH. Another way to discriminate between DHPS or DOHH inhibitors would be to use Hpu98, an antibody that recognized both hypusinated and deoxyhypusinated eIF5A, instead of Hpu24, which is specific for hypusinated eIF5A [18]. […] We performed a new Hyp’Assay by omitting DOHH in the reaction mix and using the Hpu98 antibody. First, we performed a dose response experiment with spermidine at pH: 8.0 and 9.0 (Fig 3E). The Hyp’Assay allows the detection of deoxyhypusinated eIF5A in a spermidine-dependent manner. Under these conditions, deoxyhypusination was equally efficient at both pH tested. […] We also tested the ability of GC7 (Fig 3F) and CPX or EDTA (Fig 3G) to inhibit DHPS. […] This provided us with another method to distinguish between DHPS and DOHH inhibitors.
as §2

In assay [5] the test system is human DHPS. As to conditions: read-out: Km of human DHPS for spermidine, cited from earlier work.
Assay [6] deals with DHPS. As to conditions: ref 35; read-out: IC50; cited from earlier work.
The mark [7] stands for this setting: concentration 1 (no unit on page; Fig 5A 0 to 1 mM).
[8] abbreviates: concentration 10 (no unit on page; Fig 5A 0 to 1 mM).
[9] abbreviates: concentration 100 (no unit on page; Fig 5A 0 to 1 mM).
Setting [10] is: concentration 1000 (no unit on page; Fig 5A 0 to 1 mM).

Like-named read-outs stand apart in the source and are kept apart here.

Consider `N=C(N)NCCCCO` [compound 1, 4-hydroxybutylguanidine], for which, in assay [1], the “concentration from which inhibition of hypusination was detectable” value (“concentration from which inhibition” below) stood at 1 µM. Moreover, the “hypusination signal, Mean (quantification from Figure 5A)” value in assay [1] (setting [7]) is given as 70,7; in assay [1] (setting [8]) it was 62,5; in assay [1] (setting [9]) it was 61,5; in assay [1] (setting [10]), 55,2. Moreover, the “hypusinated eIF5A, Western blot quantification, Mean (Figure 5B)” value (“hypusinated eIF5A” for short) in assay [2] stood at 65.

Consider `N=C(N)NCCCCCCO` [compound 2, 6-hydroxyhexylguanidine], for which the “concentration from which inhibition” value in assay [1] turned out to be 1 µM. In addition, the “hypusination signal, Mean (quantification from Figure 5A)” value in assay [1] (setting [7]) is on record as 81,3; in assay [1] (setting [8]), 64,4; in assay [1] (setting [9]) it was 59,1; in assay [1] (setting [10]), 44,6. For the same compound, in assay [2], the “hypusinated eIF5A” value is given as 44.5.

Regarding `N=C(N)NCCCCCCCCO` [compound 4, 8-hydroxyoctylguanidine], the “concentration from which inhibition” value in assay [1] was 100 µM. The “hypusination signal, Mean (quantification from Figure 5A)” value in assay [1] (setting [7]) is 109,4; in assay [1] (setting [8]), 86,9; in assay [1] (setting [9]) it was 67,2; in assay [1] (setting [10]) it was 64,0. In assay [2], the “hypusinated eIF5A” value amounted to 64.75.

Consider `NCCCCNCCCN` [spermidine], for which the EC50 in assay [1] is 5000 nM. Moreover, the “hypusination signal with the substance as substrate, Mean (quantification from Figure S3)” value is recorded as 1,46 in assay [1] (substrate concentration 0,01 (mM)); 31,22 in assay [1] (substrate concentration 0,1 (mM)); -0,19 in assay [1] (substrate concentration 0,0001 (mM)); -0,21 in assay [1] (substrate concentration 0,001 (mM)); 68,32 in assay [1] (substrate concentration 1 (mM)); 100,00 in assay [1] (substrate concentration 10 (mM)). Moreover, the figures for the “hypusination signal with the substance as substrate, Mean (quantification from Figure S3)” value in assay [1] (substrate concentration 100 (mM)) and in assay [1] (substrate concentration 1000 (mM)) were 86,96 and 66,59, respectively. For the same compound, the “hypusination signal, Mean (quantification from Figure 3C)” value in assay [3] (concentration 1 (no unit on page; Fig 3C dose-response 0 to 100 μM)) is 84,83; in assay [3] (concentration 10 (no unit on page; Fig 3C dose-response 0 to 100 μM)), 82,59. In addition, the “deoxyhypusination signal, Mean (quantification from Figure 3E)” value is on record as 0,00 in assay [4] (pH: 8.0, spermidine 1 µM as substrate); 50,47 in assay [4] (pH: 8.0, spermidine 10 µM as substrate); 87,29 in assay [4] (pH: 8.0, spermidine 100 µM as substrate); 98,05 in assay [4] (pH: 8.0, spermidine 1000 µM as substrate); 100,00 in assay [4] (pH: 8.0, spermidine 10000 µM as substrate); 0,00 in assay [4] (pH: 9.0, spermidine 1 µM as substrate). The “deoxyhypusination signal, Mean (quantification from Figure 3E)” value in assay [4] (pH: 9.0, spermidine 10 µM as substrate) is listed as 51,14; in assay [4] (pH: 9.0, spermidine 100 µM as substrate) it was 85,89. The Km in assay [5] (ref 23) is 4 µM; in assay [5] (ref 24), 7.6 µM.

For the compound `COc1ccccc1Oc1c(Cl)nc(-c2ccc(I)cc2)nc1Cl` [GL-1, 4,6-dichloro-2-(4-iodophenyl)-5-(2-methoxyphenoxy)pyrimidine], the IC50 in assay [6] was 210 nM.

The values above are taken from publication PMC11819603, “Development of a reliable, sensitive, and convenient assay for the discovery of new eIF5A hypusination inhibitors” (PLOS ONE, 2025).
